row,SMILES,melting point
1,CN(Cc1ccc(C(F)(F)F)cc1F)C1CCN(c2ccc(OC[C@@]3(C)Cn4cc([N+](=O)[O-])nc4O3)cc2)CC1,197.5 to 199.2 °C
2,C[C@]1(COc2ccc(N3CCC(CCc4ccc(OC(F)(F)F)cc4)CC3)cc2)Cn2cc([N+](=O)[O-])nc2O1,239.4 to 241.3 °C
3,C[C@]1(COc2ccc(N3CCC(COC(=O)Nc4ccc(OC(F)(F)F)cc4)CC3)cc2)Cn2cc([N+](=O)[O-])nc2O1,211.6 to 212 °C (dec.)
4,C[C@]1(COc2ccc(N3CCC(Nc4ccc(Oc5ccc(OC(F)(F)F)cc5)cc4)CC3)cc2)Cn2cc([N+](=O)[O-])nc2O1,198.6 to 201.1 °C (dec.)
5,C[C@]1(COc2ccc(N3CCC(Cc4cccc(OC(F)(F)F)c4)CC3)cc2)Cn2cc([N+](=O)[O-])nc2O1,187.4 to 189.8 °C
6,CN(c1ccc(OC[C@@]2(C)Cn3cc([N+](=O)[O-])nc3O2)cc1)C1CCN(c2ccc(OC(F)(F)F)cc2)CC1,137.9 to 139.2 °C
7,C[C@]1(COc2ccc(N3CCC(CCOCc4ccc(OC(F)(F)F)cc4)CC3)cc2)Cn2cc([N+](=O)[O-])nc2O1,204.8 to 206.7 °C
8,C[C@]1(COc2ccc3cc(N4CCC(Oc5ccc(OC(F)(F)F)cc5)CC4)ccc3c2)Cn2cc([N+](=O)[O-])nc2O1,204.8 to 207.9 °C
9,C[C@]1(COc2ccc(N3CCC(Nc4ccc(Cl)c(Cl)c4)CC3)cc2)Cn2cc([N+](=O)[O-])nc2O1,146 to 147.4 °C
10,C[C@]1(COc2ccc(C3CCN(CC=Cc4ccc(C(F)(F)F)cc4)CC3)cc2)Cn2cc([N+](=O)[O-])nc2O1,185.9 to 187.1 °C
11,CN(Cc1ccc(N(C)CC=Cc2ccc(C(F)(F)F)cc2)cc1)C[C@@]1(C)Cn2cc([N+](=O)[O-])nc2O1,153.5 to 154.5 °C
12,CC1(COc2ccc(N3CCC(Cc4ccc(OC(F)(F)F)cc4)CC3)cc2)Cn2cc([N+](=O)[O-])nc2O1 (stereo not drawn),180.9 to 182.7 °C
13,C[C@]1(COc2ccc(C3CCN(Cc4csc(-c5ccc(C(F)(F)F)cc5)n4)CC3)cc2)Cn2cc([N+](=O)[O-])nc2O1,194.6 to 196.4 °C
14,C[C@]1(COc2ccc(C(=O)NCC(=O)N3CCC(Oc4ccc(OC(F)(F)F)cc4)CC3)cc2)Cn2cc([N+](=O)[O-])nc2O1,186.9 to 189.5 °C
15,CC1(COc2ccc3nc(N4CCN(Cc5ccc(OC(F)(F)F)cc5)CC4)sc3c2)Cn2cc([N+](=O)[O-])nc2O1 (stereo not drawn),172.6 to 174.6 °C
16,CN(CC=Cc1ccc(OC(F)(F)F)cc1)C1CCN(c2ccc(OC[C@@]3(C)Cn4cc([N+](=O)[O-])nc4O3)cc2)CC1,213 to 214.9 °C
17,C[C@]1(COc2ccc(N3CCC(OCc4ccc(C(F)(F)F)cc4)CC3)cc2)Cn2cc([N+](=O)[O-])nc2O1,217.4 to 219.7 °C
18,C[C@]1(COc2ccc(N3CCN(CC=Cc4ccc(Cl)c(Cl)c4)CC3)cc2)Cn2cc([N+](=O)[O-])nc2O1,204.7 to 206.4 °C
19,C[C@]1(COc2ccc(N3CCC(OCC=Cc4ccc(OC(F)(F)F)cc4)CC3)cc2)Cn2cc([N+](=O)[O-])nc2O1,213.7 to 217.4 °C
20,C[C@]1(COc2ccc(N3CCC(CCOCc4ccc(Cl)cc4)CC3)cc2)Cn2cc([N+](=O)[O-])nc2O1,197.6 to 198.2 °C
21,C[C@]1(COc2ccc(-c3nc(-c4ccc(Cl)cc4)co3)cc2)Cn2cc([N+](=O)[O-])nc2O1,248.8 to 251.5 °C
22,CC1(Cc2ccc(N3CCC(Oc4ccc(OC(F)(F)F)cc4)CC3)cc2)Cn2cc([N+](=O)[O-])nc2O1 (stereo not drawn),184.9 to 186.8 °C

row,SMILES,melting point
1,C[C@]1(COc2ccc3nc(N4CCC(Cc5ccc(OC(F)(F)F)cc5)CC4)ccc3c2)Cn2cc([N+](=O)[O-])nc2O1,184.9 to 185.9 °C
2,CN(CCCOc1ccc(OC(F)(F)F)cc1)C1CCN(c2ccc(OC[C@@]3(C)Cn4cc([N+](=O)[O-])nc4O3)cc2)CC1,167.4 to 170.2 °C
3,C[C@]1(COc2ccc3nc(Cl)ccc3c2)Cn2cc([N+](=O)[O-])nc2O1,182.2 to 184.7 °C
4,C[C@]1(COc2ccc(N3CCC(OCc4ccc(OC(F)(F)F)cc4)CC3)cc2)Cn2cc([N+](=O)[O-])nc2O1,214.3 to 217.7 °C
5,C[C@]1(COc2ccc3c(c2)nc(N2CCN(Cc4ccc(OC(F)(F)F)cc4)CC2)n3Cc2ccccc2)Cn2cc([N+](=O)[O-])nc2O1,101.3 to 104 °C
6,CC1(COc2ccc(N3CCC(Cc4ccc(Cl)c(Cl)c4)CC3)cc2)Cn2cc([N+](=O)[O-])nc2O1 (stereo not drawn),191.4 to 192.1 °C
7,CN(Cc1cc2cc(Cl)ccc2o1)C1CCN(c2ccc(OC[C@@]3(C)Cn4cc([N+](=O)[O-])nc4O3)cc2)CC1,207.4 to 210 °C
8,C[C@]1(COc2ccc(N3CCC(N4CCN(c5ccc(OC(F)(F)F)cc5)CC4)CC3)cc2)Cn2cc([N+](=O)[O-])nc2O1,279 to 281 °C
9,C[C@]1(COc2ccc(N3CCN(CCOc4ccc(OC(F)(F)F)cc4)CC3)cc2)Cn2cc([N+](=O)[O-])nc2O1,194.8 to 195.6 °C
10,C[C@]1(COc2ccc(N3CCC(CCOCc4ccc(C(F)(F)F)cc4)CC3)cc2)Cn2cc([N+](=O)[O-])nc2O1,198 to 199.2 °C
11,C[C@]1(COc2ccc(CN3CCC(Cc4ccc(OC(F)(F)F)cc4)CC3)cc2)Cn2cc([N+](=O)[O-])nc2O1,172.5 to 174.1 °C
12,CN(Cc1ccccc1C(F)(F)F)C1CCN(c2ccc(OC[C@@]3(C)Cn4cc([N+](=O)[O-])nc4O3)cc2)CC1,189.6 to 190.2 °C
13,C[C@]1(COc2ccc(N3CCC(COCc4ccc(C(F)(F)F)cc4)CC3)cc2)Cn2cc([N+](=O)[O-])nc2O1,172.3 to 172.9 °C
14,CN(c1ccc(OC(F)(F)F)cc1)C1CCN(C2CCN(c3ccc(OC[C@@]4(C)Cn5cc([N+](=O)[O-])nc5O4)cc3)CC2)CC1,196 to 197 °C
15,C[C@]1(COc2ccc(N3CCC(CO)CC3)cc2)Cn2cc([N+](=O)[O-])nc2O1,171 to 173.8 °C
16,CN(c1ccc(Cl)cc1)C1CCN(C2CCN(c3ccc(OC[C@@]4(C)Cn5cc([N+](=O)[O-])nc5O4)cc3)CC2)CC1,230.8 to 232 °C
17,C[C@]1(COc2ccc(N3CCC(COC4CCCCO4)CC3)cc2)Cn2cc([N+](=O)[O-])nc2O1 (stereo partly drawn),217.6 to 218.6 °C
18,CN(CCOc1ccc(OC(F)(F)F)cc1)C1CCN(c2ccc(OC[C@@]3(C)Cn4cc([N+](=O)[O-])nc4O3)cc2)CC1,185.7 to 187.7 °C
19,C[C@]1(COc2ccc3nc(N4CCC(=Cc5ccc(OC(F)(F)F)cc5)CC4)ccc3c2)Cn2cc([N+](=O)[O-])nc2O1,193.9 to 195.9 °C
20,C[C@]1(COc2ccc(N3CCN(Cc4ccc(N5CCC(Oc6ccc(OC(F)(F)F)cc6)CC5)cc4)CC3)cc2)Cn2cc([N+](=O)[O-])nc2O1,198.2 to 201.4 °C
21,CN(CC1CCN(c2ccc(OC(F)(F)F)cc2)CC1)c1ccc(OC[C@@]2(C)Cn3cc([N+](=O)[O-])nc3O2)cc1,172.5 to 175.2 °C
22,CN(Cc1cc(C(F)(F)F)cc(C(F)(F)F)c1)C1CCN(c2ccc(OC[C@@]3(C)Cn4cc([N+](=O)[O-])nc4O3)cc2)CC1,193.8 to 195.3 °C

# The next lines start with the values.
row,melting point,SMILES
1,247.8 to 248.5 °C (dec.),C[C@]1(COc2ccc(-c3ccc(N4CCN(Cc5ccc(Cl)cc5)CC4)cc3)cc2)Cn2cc([N+](=O)[O-])nc2O1
2,223.2 to 225.2 °C (dec.),C[C@]1(COc2ccc(N3CCC(COc4ccc(C(F)(F)F)cc4)CC3)cc2)Cn2cc([N+](=O)[O-])nc2O1
3,191.2 to 192.5 °C,O=[N+]([O-])c1cn2c(n1)OC(COc1ccc(N3CCC(COc4ccc(Cl)cc4)CC3)cc1)C2 (stereo not drawn)
4,132.7 to 135 °C,O=[N+]([O-])c1cn2c(n1)OC(COc1ccc(N3CCC(Cc4ccc(OC(F)(F)F)cc4)CC3)cc1)C2 (stereo not drawn)
5,222 to 223 °C,CCCc1ccc(NC2CCN(c3ccc(OC[C@@]4(C)Cn5cc([N+](=O)[O-])nc5O4)cc3)CC2)cc1
6,190 to 190.4 °C,CC1(COc2ccc(N3CCC(COc4ccc(Cl)cc4)CC3)cc2)Cn2cc([N+](=O)[O-])nc2O1 (stereo not drawn)
7,140.4 to 141.7 °C,C[C@]1(COc2ccc(N3CCC(COc4ccc(CCl)cc4)CC3)cc2)Cn2cc([N+](=O)[O-])nc2O1
8,222.6 to 225.1 °C (dec.),C[C@]1(COc2ccc(-c3ccc(N4CCN(Cc5ccc(Cl)c(Cl)c5)CC4)cc3)cc2)Cn2cc([N+](=O)[O-])nc2O1
9,213.8 to 215.7 °C,CC(C)(C)OC(=O)N1CCCN(c2ccc(-c3ccc(OC[C@@]4(C)Cn5cc([N+](=O)[O-])nc5O4)cc3)cc2)CC1
10,199.7 to 202 °C,C[C@]1(COc2ccc(N3CCN(CC=Cc4ccc(C(F)(F)F)cc4)CC3)cc2)Cn2cc([N+](=O)[O-])nc2O1
11,208.9 to 211.7 °C,O=[N+]([O-])c1cn2c(n1)O[C@@H](COc1ccc(N3CCC(CCc4ccc(OC(F)(F)F)cc4)CC3)cc1)C2
12,140.4 to 141.7 °C,O=[N+]([O-])c1cn2c(n1)O[C@@H](COc1ccc(N3CCC(COCc4ccc(OC(F)(F)F)cc4)CC3)cc1)C2
13,247 to 249 °C,C[C@]1(COc2ccc(N3CCC(N4CCN(c5ccc(Cl)cc5)CC4)CC3)cc2)Cn2cc([N+](=O)[O-])nc2O1
14,210 to 212.1 °C,C[C@]1(COc2ccc(N3CCN(Cc4csc(-c5ccc(C(F)(F)F)cc5)n4)CC3)cc2)Cn2cc([N+](=O)[O-])nc2O1
15,175 to 180 °C,O=[N+]([O-])c1cn2c(n1)O[C@@H](COc1ccc(N3CCC(COc4ccc(C(F)(F)F)cc4)CC3)cc1)C2
16,247.7 to 248.4 °C (dec.),C[C@]1(COc2ccc(-c3ccc(N4CCN(Cc5ccc(C(F)(F)F)cc5)CC4)cc3)cc2)Cn2cc([N+](=O)[O-])nc2O1
17,140.2 to 141.7 °C,O=[N+]([O-])c1cn2c(n1)OC(COc1ccc(N3CCC(COCc4ccc(C(F)(F)F)cc4)CC3)cc1)C2 (stereo not drawn)
18,245 °C (dec.),C[C@]1(COc2ccc(N3CCC(COc4ccc(-c5ccccc5)cc4)CC3)cc2)Cn2cc([N+](=O)[O-])nc2O1
19,181.1 to 182.2 °C,CC1(COc2ccc(N3CCN(CC=Cc4ccc(OC(F)(F)F)cc4)CC3)cc2)Cn2cc([N+](=O)[O-])nc2O1 (stereo not drawn)
20,235.5 to 237.5 °C,CC(C)(C)OC(=O)N1CCCN(c2ccc(-c3ccc(OC[C@H]4Cn5cc([N+](=O)[O-])nc5O4)cc3)cc2)CC1
21,134 to 137.9 °C,C[C@]1(COc2ccc(N3CCCN(c4ccc(OC(F)(F)F)cc4)CC3)cc2)Cn2cc([N+](=O)[O-])nc2O1
22,207.1 to 211.2 °C,C[C@]1(COc2ccc(N3CCC(Cc4ccc(Cl)cc4)CC3)cc2)Cn2cc([N+](=O)[O-])nc2O1
